The values that follow come from ChEMBL document CHEMBL1150884, “Antifungal amide from leaves of Piper hispidum” (1998).

The test system of the experiment is Cladosporium sphaerospermum. Description: Antifungal activity against Cladosporium sphaerospermum after 72 hrs in dark by TLC assay. The experiment is classed as functional.

For `O=C(/C=C\C=C/CCc1ccc2c(c1)OCO2)N1CCCC1`, the MIC came to 8 µg.
